Laboratory results taken from patent US10016356B2, “Sebum secretion inhibitory agent” (BASF Beauty Care Solutions France S.A.S., priority 2008, dated 2018).

Experiments:
[1] = test system: squalene synthesis on explants of normal human skin; assay: Biosynthesis of squalene from 4-14C mevalonate on explants of normal human skin (in vitro); format: cell-based; details: percentage relative to untreated negative control; extracts of culture media; 24 h; n=3 biopsies; extract at 2%, zinc gluconate at 1%
Description: The principle of this evaluation is based on the measurement of the biosynthesis of squalene, a specific tracer of the production of human sebum by the sebocytes, from radiolabelled mevalonic acid.
1) Freshly taken biopsies of human skin (n=3) are incubated in 5 ml of culture medium in the presence or absence of the test products for 24 h.
2) An amount of radioactive products of 2 μCi of mevalonate 4-^14C is then added to the biopsies and the whole is incubated again for 24 h.
3) Extraction of the culture media and of the surface of the skin is carried out with isopropyl ether, then the skin samples are dried and weighed as dry weight.
4) The extraction products are analysed by thin-layer chromatography and the quantity of metabolites of ^14C-mevalonate (squalene) is evaluated.
The squalene on the surface of the skin in culture is extracted, then deposited on HPTLC (high-performance thin layer chromatography) plates and migrated after addition of 10 μg of a squalene standard by deposition in the presence of heptane as migration solvent. The radioactivity of the squalene is visualized in a conventional manner. Each radioactive spot corresponding to squalene is scraped onto the HPTLC plates and the radioactivity is measured using a scintillation counter. Each count was expressed in grams of dry tissue. […]

[2] = test system: Caucasian and Asian volunteers; assay: Clinical assessment of pore size and shiny appearance in volunteers applying the product once a day; format: in vivo, human; details: after 28 days of treatment, extract at 2%, zinc gluconate 1%
Description: (§1) Caucasian and Asian volunteers applied a test product once a day, in blind conditions. Clinical and instrumental assessments, by application of Sebutape™ patches, were carried out on D0, D14 and D28 and the contents of these samples of Sebutape™ patches were analysed quantitatively by image analyser (polarimetric imaging). Determination of the squalene taken in the Sebutape™ patches was carried out as follows:
(§2) The experiment was conducted on Caucasian and Asian volunteers according to the conditions described in Example 3 for 28 days of treatment (last application on D27 in the evening). Assessments carried out on D30 allowed the persistence of the effect of an extract according to the invention on the production of sebum to be evaluated, two days after stopping the treatment.

[3] = test system: Caucasian and Asian volunteers; assay: Number of active sebaceous glands (number of spots on Sebutape patches, image analysis); format: in vivo, human; details: extract at 2%, zinc gluconate 1%
Description: (§3) The principle of this evaluation is based on the clinical and instrumental analysis of samples of secretions of sebum using Sebutape™ patches according to the conventional method.
as §1
At 28 days of treatment, the number of active sebaceous glands had decreased by 7.4% in the subjects who had applied the extract according to Example 1a) at 2% (measurement of the number of spots present on the patches compared against D0).
as §2

[4] = test system: Caucasian and Asian volunteers; assay: Determination of squalene in Sebutape patches (HPTLC, densitometry); format: in vivo, human; details: after 28 days of treatment; zinc gluconate 1%
Description: as §3, §1
The Sebutape™ patches were treated by extraction with 10 ml of ether. The lipid residues were deposited on an HPTLC silica gel nanoplate on an aluminium support, one lane of which was reserved for receiving a deposit of 10 μg of squalene standard.
The contents of the plates were subjected to migration in heptane.
The squalene spots were then quantified by densitometry using an instrument of the ChromatoScan CS-93 (Shimadzu) type. Reading was based on absorption at 450 nm and the area of the peaks was expressed in arbitrary units in the table of results given below.

Asian volunteers = assay: Self-evaluation of skin texture (refinement of skin grain); format: in vivo, human; details: 2 days after stopping the 28-day treatment, extract at 2%, zinc gluconate positive control
Description: as §2
Moreover, 2 days after stopping the treatment, 71% of the Asian volunteers who had applied the extract according to Example 1a) at 2% declared that there was refinement of their skin grain (p<0.05). In comparison, only 52% of the volunteers in the group of volunteers who had applied the positive control (zinc gluconate) noticed an improvement in this parameter.

zinc gluconate
Measurement of squalene synthesis, Mean value [1]: 76.6%
pore size reduced by (clinical assessment) [2]: 17.5%
Active sebaceous glands, % Dn/D 0 ([3]; 2 days after D 28 (after stopping the treatment)): −3.8%
Active sebaceous glands, % Dn/D 0 ([3]; D 28): +8.5%
change of content of squalene in the sebum (signed) [4]: −14%
volunteers declaring refinement of their skin grain (self-evaluation) (Asian volunteers): 52%
